Test results taken from patent US10952961B2, “Implants and constructs including hollow fibers” (priority 2015, dated 2021).

What was measured:
[1] = Diffusivity of example drug molecules in water and in broad membrane pores; type: physicochemical; details: diffusivity within broad-pore membrane (HFHHP); unit not printed in this column, D is in cm^2/s
Excerpt: Assuming that the pore diameter essentially exceeds the molecule dimension, which is necessary for drug release to occur in any of the modes of drug release, Dm can be presented as product of three multipliers: diffusivity in water D, membrane porosity ε and tortuosity t0; Dm=Dεt0^−1. The maximal porosity is about 0.5. Taking into account the tortuosity t0=2, Dm˜0.25D. Vl has to be replaced by local interstitial velocity Vint. In turn, Vint can be specified as Vn(LB), when the condition 2Rlb>>Rf is valid and the fabric is placed at a small distance from LB. […] As to lm, having its value be small is desirable for the diffusion-dominated case.
[formula] This yields, E=Pe^0.5. This equation estimate E from below, i.e., the real E is essentially larger. A larger Pe means a larger role of convection in comparison with diffusion. […] But the derived equation quantifies this observation. The diffusivity D depends on the water viscosity η and on the macromolecule radius r. This dependence is described by the Stokes-Einstein equation:
[formula] where k is the Boltzman constant, T is absolute temperature. r increases with molecular weight (MW) and 100<MW<500 g/mole. This is not true for proteins and larger molecules.
With respect to broad pores of membrane in case of HFHHP, Dm≅εt0^−1D˜0.25D.

[2] = diffusivity in water; cited from earlier work
[3] = system: Pseudomonas aeruginosa PAO1 Xen41; experiment: Zone of inhibition (modified Kirby-Bauer) of drug-loaded hollow fibers; type: cell-based; details: drug-loaded polypropylene hollow fibers (saturated solution)
Description: (§1) To assess the antimicrobial efficacy of drug loaded hollow fibers, we used a modified Kirby-Bauer assay where a zone of inhibition of bacterial growth was measured on a solid agar plate as is normally done in the field of microbiology. This model was used since it allowed us to capture the real time drug release from the hollow fibers and at the same time to represent a model of drug release into a soft tissue. […] Vancomycin was chosen for proof of principle with the hollow fibers devices because this antibiotic has precedent in being commonly used to combat S. aureus infection in orthopedic joint arthroplasties, where locally high concentrations are delivered by elution from both non-absorbable (polymethyl methacrylate, PMMA) and absorbable mineral cements. Ciprofloxacin was used since it is a broad spectrum antibiotic used to target Gram negative pathogens such as P. aeruginosa. In addition, water soluble fluorescein sodium was used as a model drug to assess the release of a hydrophilic water-soluble agent from the hollow fiber drug delivery system. All reagents were purchased from Sigma-Aldrich. P. aeruginosa and S. aureus are biofilm-forming pathogens commonly isolated from infected meshes and sutures, and the strains we have selected have been transformed with bioluminescent genes so that live biofilm development and activity can be tracked in real time using a photon counting camera (Xenogen IVIS imaging system, Alameda, Calif.).
(§2) A lawn of bacteria was spread out onto an LB (Luria broth) agar plate. The plate was incubated at 5% CO2 at 37° C. for 18 hours for the first challenge. The fibers were then aseptically removed from the original plate and placed on a fresh lawn of bacteria on a new plate for the second challenge and incubated as before. Drug-free hollow fibers rinsed with isopropanol alone were used as controls. Experiments were repeated in triplicate. […] The fibers were then placed on a fresh plate and re-challenged. […]

[4] = room temperature; cited from earlier work
[5] = system: Staphylococcus aureus 16MRSA Xen30; experiment: Zone of inhibition (modified Kirby-Bauer) of drug-loaded hollow fibers; type: cell-based
Description: as §1, §2

[6] = Saturated drug solutions in normal saline used to fill hollow fibers; type: physicochemical
Description: Pressure was applied on the syringe plunger until liquid drops were visibly seen to form at the open end of each of the hollow fibers.

For `Cn1c(=O)c2c(ncn2C)n(C)c1=O` [Caffeine], the “Dm = 0.25 D” value [1] is listed as 1.5 × 10^−6 and the “D (cm^2/s) Aqueous” value [2] is listed as 4.9 × 10^−6 cm^2/s.

In the case of `O=C(O)c1cn(C2CC2)c2cc(N3CCNCC3)c(F)cc2c1=O` [ciprofloxacin], the “challenges over which a zone of inhibition was achieved” value [3] is reported as “one challenge”.

In the case of `CO[C@H]1/C=C/O[C@@]2(C)Oc3c(C)c(O)c4c(O)c(c(/C=N/N5CCN(C)CC5)c(O)c4c3C2=O)NC(=O)/C(C)=C\C=C\[C@H](C)[C@H](O)[C@@H](C)[C@@H](O)[C@@H](C)[C@H](OC(C)=O)[C@@H]1C` [rifampicin], the solubility in methanol [4] is listed as “at least 50 milligrams/milliliter”.

In the case of `CN[C@H](CC(C)C)C(=O)N[C@H]1C(=O)N[C@@H](CC(N)=O)C(=O)N[C@H]2C(=O)N[C@H]3C(=O)N[C@H](C(=O)N[C@H](C(=O)O)c4cc(O)cc(O)c4-c4cc3ccc4O)[C@H](O)c3ccc(c(Cl)c3)Oc3cc2cc(c3O[C@@H]2O[C@H](CO)[C@@H](O)[C@H](O)[C@H]2O[C@H]2C[C@](C)(N)[C@H](O)[C@H](C)O2)Oc2ccc(cc2Cl)[C@H]1O` [vancomycin], the “period over which a zone of inhibition was achieved” value ([5]; drug-loaded polypropylene hollow fibers (saturated solution), repeated challenges on fresh lawns) is reported as 2 days, the “activity on the second challenge” value ([5]; fiber moved to a fresh plate and re-challenged) is reported as “showed activity” and the “concentration of saturated solution” value [6] is reported as 100000 µg/mL.

In the case of Insulin, the “Dm = 0.25 D” value [1] is listed as 2.5 × 10^−7 and the “D (cm^2/s) Aqueous” value [2] is listed as 8.3 × 10^−7 cm^2/s.
